Like-named read-outs stand apart in the source and are kept apart here.
Assays:
[1] = molecular target: human cannabinoid CB1 receptor (Homo sapiens, UniProt P21554); experiment: biochemical; assay type: binding; design: expressed in transfected cells; host or cells: Chinese hamster ovary (CHO) cells, membrane preparation; details: [3H]CP-55,940 radioligand, CHO cell membranes stably transfected with human CB1
Experimental: After incubation of a freshly prepared cell membrane preparation with the [^3H]-ligand, with or without addition of compounds of the invention, separation of bound and free ligand was performed by filtration over glassfiber filters. Radioactivity on the filter was measured by liquid scintillation counting.

Chain of human cannabinoid CB1 receptor (P21554 whole entry): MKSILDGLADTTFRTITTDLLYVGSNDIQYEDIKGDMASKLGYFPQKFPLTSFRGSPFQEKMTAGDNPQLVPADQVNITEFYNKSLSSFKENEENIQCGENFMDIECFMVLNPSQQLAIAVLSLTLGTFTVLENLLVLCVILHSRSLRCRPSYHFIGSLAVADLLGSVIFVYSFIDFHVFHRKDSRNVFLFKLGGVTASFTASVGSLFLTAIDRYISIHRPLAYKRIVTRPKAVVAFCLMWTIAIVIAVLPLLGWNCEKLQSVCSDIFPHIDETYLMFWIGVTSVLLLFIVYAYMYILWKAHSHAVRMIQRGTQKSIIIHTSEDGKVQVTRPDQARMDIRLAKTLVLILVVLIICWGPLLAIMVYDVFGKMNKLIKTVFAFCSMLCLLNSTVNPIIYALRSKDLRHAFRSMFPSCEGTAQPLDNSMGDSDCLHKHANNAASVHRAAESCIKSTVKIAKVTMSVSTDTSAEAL

melting point	Ki ([1]; read-out: hCB1 pKi (converted))	SMILES	Ki ([1]; hCB1 pKi)
198 to 199 °C		CCc1c(C(=O)NC2CCCCC2)nc(-c2cc(Cl)ccc2Cl)n1-c1ccccc1	
207 to 208 °C		CCc1c(C(=O)NN2CCCCC2)nc(-c2cc(Cl)ccc2Cl)n1-c1ccccc1	
211 to 213 °C		Cc1cccnc1-c1nc(C(=O)NN2CCCCC2)c(C)n1-c1ccc(Cl)cc1	
188 to 190 °C		Cc1cccnc1-c1nc(C(=O)NC2CCCCC2)c(C)n1-c1ccc(Cl)cc1	
238 to 240 °C		O=C(NN1CCCC1)c1cn(-c2ccc(Br)cc2)c(-c2ccc(Cl)cc2Cl)n1	
115 °C		CCCCCNC(=O)c1cn(-c2ccc(Cl)cc2)c(-c2ccc(Cl)cc2OC)n1	
177 to 179 °C		CCN(CC)C(=O)c1cn(-c2ccc(Cl)cc2)c(-c2ccc(Cl)cc2Cl)n1	
288 °C		O=C(NC12CC3CC(CC(C3)C1)C2)c1cn(-c2ccc(Cl)cc2)c(-c2ccc(Cl)cc2C(F)(F)F)n1	
149 °C		O=C(NCC(F)(F)F)c1cn(-c2ccc(Cl)cc2)c(-c2ccc(Cl)cc2C(F)(F)F)n1	
195 °C		O=C(NC1CCCCC1)c1cn(-c2cccnc2)c(-c2ccc(Cl)cc2Cl)n1	
117 °C		CCCCCNC(=O)c1cn(-c2cccnc2)c(-c2ccc(Cl)cc2Cl)n1	
212 °C		Cc1c(C(=O)NC2CCCCC2)nc(-c2ccc(Cl)cc2C(F)(F)F)n1-c1ccc(Cl)cc1	
> 256 °C		COc1cc(Cl)ccc1-c1nc(C(=O)NN2CCCCC2)c(C)n1-c1ccc(Cl)cc1	
201 °C		COc1cc(Cl)ccc1-c1nc(C(=O)NC2CCCCC2)c(C)n1-c1ccc(Cl)cc1	
229 to 230 °C		Cc1c(C(=O)NC2CCCCC2)nc(-c2ccc(Cl)cc2Cl)n1-c1ccc(F)cc1	
97 to 102 °C		CCCCCNC(=O)c1nc(-c2ccccc2Cl)n(-c2cccc(F)c2)c1C	
195 to 196 °C		CCc1c(C(=O)NC2CCCCC2)nc(-c2ccc(C)n2C)n1-c1ccccc1	
	126 nM	O=C(Nc1ccccc1)c1cn(-c2ccc(Cl)cc2)c(-c2ccc(Cl)cc2Cl)n1 [Example 4, 1-(4-Chlorophenyl)-2-(2,4-dichlorophenyl)-N-phenyl-1H-imidazole-4-carboxamide]	
175 to 176 °C	200 nM	O=C(NN1CCCCC1)c1cn(-c2ccc(F)cc2)c(-c2ccc(Cl)cc2Cl)n1 [Example 31, 2-(2,4-Dichlorophenyl)-1-(4-fluorophenyl)-N-(piperidin-1-yl)-1H-imidazole-4-carboxamide]	

melting point	Ki ([1]; read-out: hCB1 pKi (converted))	SMILES	Ki ([1]; hCB1 pKi)
157 to 159 °C	501 nM	O=C(NC1CCCCC1)c1cn(-c2ccc(Cl)cc2)c(-c2ccc(Cl)cc2F)n1 [Example 33, N-Cyclohexyl-2-(2-fluoro-4-chlorophenyl)-1-(4-chlorophenyl)-1H-imidazole-4-carboxamide]	
165 to 170 °C		O=C(NN1CCCCC1)c1cn(-c2cccnc2)c(-c2ccc(Cl)cc2Cl)n1 [Example 42, 2-(2,4-Dichlorophenyl)-1-(pyridin-3-yl)-N-(piperidin-1-yl)-1H-imidazole-4-carboxamide]	
178 to 179 °C	158 nM	Cc1c(C(=O)NC2CCCCC2)nc(-c2ccc(Cl)cc2Cl)n1-c1ccc(C(F)(F)F)cc1 [Example 47, N-Cyclohexyl-2-(2,4-dichlorophenyl)-5-methyl-1-(4-(trifluoromethyl)phenyl)-1H-imidazole-4-carboxamide]	
160 to 161 °C	126 nM	COc1ccc(-n2c(-c3ccc(Cl)cc3Cl)nc(C(=O)NC3CCCCC3)c2C)cc1 [Example 49, N-(1-cyclohexyl)-2-(2,4-dichlorophenyl)-5-methyl-1-(4-methoxyphenyl)-1H-imidazole-4-carboxamide]	
		Cc1c(C(=O)N(C)C)nc(-c2ccc(Cl)cc2Cl)n1-c1ccc(Cl)cc1 [Example 50, 1-(4-Chlorophenyl)-2-(2,4-dichlorophenyl)-N,N,5-trimethyl-1H-imidazole-4-carboxamide]	5.01 nM
		Cc1c(C(=O)NN2CCCCCC2)nc(-c2ccc(Cl)cc2Cl)n1-c1ccc(Cl)cn1 [Example 53, N-(1-Azepanyl)-1-(5-Chloropyridin-2-yl)-2-(2,4-dichlorophenyl)-5-methyl-1H-imidazole-4-carboxamide]	50.1 nM
		Cc1c(C(=O)NC2CCCCC2)nc(-c2ccc(Cl)cc2Cl)n1-c1ccc(Cl)cn1 [Example 54, 1-(5-Chloropyridin-2-yl)-N-cyclohexyl-2-(2,4-dichlorophenyl)-5-methyl-1H-imidazole-4-carboxamide]	100 nM
		CCCCCNC(=O)c1nc(-c2ccc(Cl)cc2Cl)n(-c2ccc(Cl)cn2)c1C [Example 55, 1-(5-Chloropyridin-2-yl)-2-(2,4-dichlorophenyl)-5-methyl-N-(n-pentyl)-1H-imidazole-4-carboxamide]	50.1 nM
123 to 126 °C	158 nM	Cc1c(C(=O)NCc2ccc(F)cc2)nc(-c2ccc(Cl)cc2Cl)n1-c1ccc(Cl)cn1 [Example 56, 1-(5-Chloropyridin-2-yl)-2-(2,4-dichlorophenyl)-N-(4-fluorobenzyl)-5-methyl-1H-imidazole-4-carboxamide]	
165 °C	200 nM	Cc1c(C(=O)NN2CCCCC2)nc(-c2ccc(Cl)cc2C(F)(F)F)n1-c1ccc(Cl)cc1 [Example 58, 1-(4-Chlorophenyl)-5-methyl-N-(piperidin-1-yl)-2-(2-trifluoromethyl-4-chlorophenyl)-1H-imidazole-4-carboxamide]	
195 °C	501 nM	Cc1c(C(=O)NN2CCCCC2)nc(-c2ccc(Cl)cc2F)n1-c1ccc(Cl)cc1 [Example 66, 1-(4-Chlorophenyl)-2-(2-fluoro-4-chlorophenyl)-5-methyl-N-(piperidin-1-yl)-1H-imidazole-4-carboxamide]	
		CCCCCNC(=O)c1nc(-c2ccc(Cl)cc2Cl)n(-c2ccc(Cl)cn2)c1CC [Example 79, 1-(5-Chloropyridin-2-yl)-2-(2,4-dichlorophenyl)-5-ethyl-N-(n-pentyl)-1H-imidazole-4-carboxamide]	15.8 nM
143 to 146 °C		Cc1c(C(=O)C2NCCc3ccccc32)nc(-c2ccc(Cl)cc2Cl)n1-c1ccc(Cl)cc1 (centres unmarked) [Example 88, 1-{[1-(4-Chlorophenyl)-2-(2,4-dichlorophenyl)-5-methyl-1H-imidazol-4-yl]carbonyl}-1,2,3,4-tetrahydroisoquinoline]	
		Cc1c(C(=O)NC2CC3CCC2C3)nc(-c2ccc(Cl)cc2Cl)n1-c1ccc(Cl)cc1 (stereo not drawn) [Example 89, N-(Endo-bicyclo[2.2.1]hept-2-yl)-1-(4-chlorophenyl)-2-(2,4-dichlorophenyl)-5-methyl-1H-imidazole-4-carboxamide]	6.31 nM
		CCCCCNC(=O)c1nc(-c2ccc(Cl)cc2Cl)n(-c2ccc(Cl)cc2)c1C [Example 91, 1-(4-Chlorophenyl)-2-(2,4-dichlorophenyl)-5-methyl-N-(n-pentyl)-1H-imidazole-4-carboxamide]	31.6 nM
144 to 146 °C		CCc1c(C(=O)NC2CCCCC2)nc(-c2ccc(Cl)cc2Cl)n1-c1cc(F)ccc1F [Example 97, N-Cyclohexyl-2-(2,4-dichlorophenyl)-1-(2,5-difluorophenyl)-5-ethyl-1H-imidazole-4-carboxamide]	
206 to 208 °C		Cc1c(C(=O)NC2CCCCC2)nc(-c2ccc(Cl)cc2Cl)n1-c1cc(F)ccc1F [Example 98, N-Cyclohexyl-2-(2,4-dichlorophenyl)-1-(2,5-difluorophenyl)-5-methyl-1H-imidazole-4-carboxamide]	
		CS(=O)(=O)c1c(C(=O)NC2CCCCC2)nc(-c2ccc(Cl)cc2Cl)n1-c1ccc(Cl)cc1 [Example 119, 1-(4-chlorophenyl)-2-(2,4-dichlorophenyl)-5-methylsulfonyl-N-(cyclohexyl)-1H-imidazole-4-carboxamide]	63.1 nM
		CSc1c(C(=O)NC2CCCCC2)nc(-c2ccc(Cl)cc2Cl)n1-c1ccc(Cl)cc1 [Example 121, 1-(4-chlorophenyl)-2-(2,4-dichlorophenyl)-5-methylsulfanyl-N-(cyclohexyl)-1H-imidazole-4-carboxamide]	63.1 nM

SMILES	melting point	Ki ([1]; read-out: hCB1 pKi (converted))	Ki ([1]; hCB1 pKi)
Cc1c(C(=O)NOC(C)(C)C)nc(-c2ccc(Cl)cc2)n1-c1ccc(Cl)cc1Cl [Example 11, N-(t-Butoxy)-2-(4-chlorophenyl)-1-(2,4-dichlorophenyl)-5-methyl-1H-imidazole-4-carboxamide]		501 nM	
COc1cc(Cl)ccc1-c1nc(C(=O)NN2CCCCC2)cn1-c1ccc(Cl)cc1 [Example 28, 1-(4-Chlorophenyl)-2-(2-methoxy-4-chlorophenyl)-N-(piperidin-1-yl)-1H-imidazole-4-carboxamide]	220 °C		63.1 nM
O=C(NN1CCCCC1)c1cn(-c2ccc(Cl)cc2)c(-c2ccc(Cl)cc2F)n1 [Example 30, 1-(4-Chlorophenyl)-2-(2-fluoro-4-chlorophenyl)-N-(piperidin-1-yl)-1H-imidazole-4-carboxamide]	217 to 218 °C		25.1 nM
O=C(NC1CCCCC1)c1cn(-c2ccc(F)cc2)c(-c2ccc(Cl)cc2Cl)n1 [Example 32, N-Cyclohexyl-2-(2,4-dichlorophenyl)-1-(4-fluorophenyl)-1H-imidazole-4-carboxamide]	184 to 185 °C		25.1 nM
COc1ccc(-n2cc(C(=O)NN3CCCCC3)nc2-c2ccc(Cl)cc2Cl)cc1 [Example 35, 2-(2,4-Dichlorophenyl)-1-(4-methoxyphenyl)-N-(piperidin-1-yl)-1H-imidazole-4-carboxamide]	178 to 179 °C		50.1 nM
CCCCCNC(=O)c1nc(-c2ccc(Cl)cc2OC)n(-c2ccc(Cl)cc2)c1C [Example 59, 1-(4-Chlorophenyl)-2-(2-methoxy-4-chlorophenyl)-5-methyl-N-(n-pentyl)-1H-imidazole-4-carboxamide]	131 °C		501 nM
